Reference: patent publication US20110245334A1, “USE OF RACEMATES OF PINOCEMBRIN IN PREPARING MEDICAMENTS FOR TREATING STROKE” (CSPC Zhonggi Pharmaceutical Technology (Shijiazhuang) Co. …, priority 2008, published 2011)

Legend:
[1] = antihistamine, oral administration; cited from earlier work
[2] = tested on: tMCAO rats; test: Neurobehavioral examination (Bederson's score), tMCAO time window study; format: in vivo, rat; settings: 2 hours ischemia and 24 hours reperfusion
Description: (§1) 1. In the test, transient middle cerebral artery occlusion (tMCAO) model of rats was adopted. The reperfusion was performed after focal cerebral ischemia for 2 hours so as to inspect therapeutic time window of pinocembrin after focal cerebral ischemia. The rats were administered by pinocembrin racemate (1 mg/kg, 5 mg/kg, intravenous injection) after reperfusion 1 hour, 4 hours and 6 hours (i.e., ischemia 3 hour, 6 hours and 8 hours). (R)-pinocembrin and (S)-pinocembrin (1 mg/kg, 5 mg/kg, intravenous injection) were administered after reperfusion 1 hour and 4 hours (i.e., ischemia 3 hour and 6 hours). The therapeutic time windows of these drugs in focal cerebral ischemia were assessed by studying their effects to neurological symptom scores, infarct sizes and brain water contents during 24 hours after tMCAO.
The CCA and ICA were clipped with artery clips. Two No. 0 surgery lines were litigated on the ECA distal end with 2-3 mm spacing and then the vascular between the two surgery lines was cut. The distal end of ECA was pulled until it formed a straight line with the ICA. An incision was cut on ECA and a nylon line was inserted through ECA into ICA. After the artery clip was loosen, the nylon line was pushed on into the brain through ICA and inserted in depth of 18.5±0.5 mm when resistance was felt slightly. The nylon line reached a smaller anterior cerebral artery through the beginning of MCA and then the blood flow obstruction in right MCA was established. the animals were kept in anesthesia during the obstruction. After 2 hours of obstruction, the nylon line was gently pulled out to ECA stub to form reperfusion. During the surgery process, the animals were irradiated by table lamp of 100 W to maintain the body temperature. The room temperature was kept in range of 23-25° C.
(§2) 2.4 Experimental Grouping and Administration • Sham operation group (intravenous injection of normal saline after 3 hours of ischemia); • Model group (intravenous injection of 50 mg/kg hydroxypropyl β-cyclodextrin after 3 hours of ischemia); • Nimodipine group (1 mg/kg, administered after 3 hours of ischemia); • Pinocembrin racemate group (1 mg/kg, 5 mg/kg, administered after 3, 6 and 8 hours of ischemia); • (R)-pinocembrin group (1 mg/kg, 5 mg/kg, administered after 3 and 6 hours of ischemia); • (S)-pinocembrin group (1 mg/kg, 5 mg/kg, administered after 3 and 6 hours of ischemia).
(§3) First administration was performed by intravenous injection, and intraperitoneal injection was carried out once 12 hours later with a dose 1.5 times of that for intravenous injection.
Neurobehavioral examination was performed respectively when the animals were awake after surgery and before the animals were put to death. Bederson's score was adopted (see details in Example 2, 1. Neurobehavioral Examination).

[3] = tested on: plasma ET-1; test: Plasma ET-1 (radioimmunoassay) in SHRSP; format: in vivo, rat; design: ET-1 content: unit not given here; settings: SHRSP rats; for ET-1 content: plasma
Description: 5) Blood of 2 mL was dropped rapidly in a cuvette with 30 μL 7.5% EDTA-2Na and 40 μL aprotinin and mixed. After centrifuged for 5 min at 3000 rpm, plasma ET-1 in liquid supernatant was determined by isotope radioimmunoassay.

[4] = tested on: tMCAO rats; test: Brain water content, tMCAO time window study; format: in vivo, rat; settings: 2 hours ischemia and 24 hours reperfusion
Description: as §1, §2, §3
The wet weight of each animal's brain was weighted before sliced. After staining, the brain slices were dried at 105° C. for 24 hours, and the dry weight of each animal's brain was weighted. The brain water contents of animals of various groups were compared. Brain water content=(brain wet weight−brain dry weight)/brain wet weight×100%.

[5] = tested on: plasma fibrinogen; test: Plasma fibrinogen assay (ELISA) in SHRSP; format: in vivo, rat; design: Plasma fibrinogen: unit not given here; settings: SHRSP rats
Description: The mixture was centrifuged for 15 min at 3000 rpm and plasma fibrinogen in liquid supernatant was determined by euzymelinked immunosorbent assay (ELISA).

[6] = tested on: tMCAO rats; test: Therapeutic time window in focal cerebral ischemia-reperfusion injured rats; format: in vivo, rat; settings: tMCAO rats, 1 mg/kg, 5 mg/kg
Description: as §1, §2, §3

[7] = tested on: SD rats; test: Acute toxicity, single intravenous injection; settings: single intravenous injection in SD rats
[8] = tested on: tMCAO rats; test: Infarct volume (TTC), tMCAO time window study; format: in vivo, rat; settings: 2 hours ischemia and 24 hours reperfusion
Description: as §1, §2, §3
After neurobehavioral scoring, the rats were put to death by decollation and their brain tissues were taken out quickly and put into a refrigerator of −20° C. 10 min later, the brain tissues were moved to an environment of room temperature. After the olfactory bulb, cerebellar and lower brain stem were resected, the brain tissue was cut into six continuous coronal slices with an interval of 2 mm. Then the brain slices were quickly put into 5 ml solution containing 2% TTC and incubated at a constant temperature of 37° C. and in a condition of darkness for 30 min. During the time, the brain slices were tipped every 5 min. […] Every group of brain slices were put in order and photographed. The photographs were processed by an image analysis system and the infarct areas in each slice were calculated. The infarct volume of each slice was calculated via multiplying the infarct area by thickness of slice (2 mm), and the infarct volume was the sum of infarct volumes of all slices. The infarct volume percentage was expressed as: sick-side infarct volume/total sick-side brain volume.

[9] = in vivo; settings: SD, rat, iv
[10] = tested on: MCAO rats; test: Nissl staining of hippocampal neurons, MCAO; format: in vivo, rat; settings: hippocampus, cerebral ischemia 24 hours
Description: After cerebral ischemia for 24 hours, the rats were anesthetized by intraperitoneal injection of 10% Chloral hydrate. After perfused via heart with heparinized normal saline for 10 min and 4% paraformaldehyde for 30 min, the brain tissue was taken out and moved in 4% paraformaldehyde to fix, then cut into coronal sections (6 μm) by a frozen section machine, and one section was taken out in every 20 sections to stain. The stained sections were expanded on a slide glass treated by polylysine, and then preserved in a refrigerator at −40° C.
Nissel staining: (1) the frozen section was taken out from the refrigerator and dried in room temperature; (2) put into acetone to fix for 30 min and washed by PBS for 3 times, 3 min every time; (3) dipped for 20-30 min in toluidine blue dye and then washed by water for 15 min; (4) dehydrated by ethanol in gradient manner and vitrified by xylene and mounted by a neutral gum; (5) observed under a light microscope and photographed for analysis; (6) 4 frozen sections in roughly same position for each rat were taken out and 5 vision fields in hippocampus for each section were observed under 200× light microscope (totally 20 visions per rat). The cells in vision fields were counted. The averages of ratios of the numbers in the administration groups to the number in the model group were calculated for statistical analysis.

[11] = initially injected after 3 hours of ischemia
[12] = initially injected after 6 hours of ischemia

Compound	Neurobehavioral value ([2]; 1 mg/kg, 3 h)	Neurobehavioral value ([2]; 1 mg/kg, 6 h)	Neurobehavioral value ([2]; 5 mg/kg, 3 h)	Neurobehavioral value ([2]; 5 mg/kg, 6 h)	ET-1 content ([3]; 3 mg/kg)	ET-1 content ([3]; 10 mg/kg)	ET-1 content ([3]; 30 mg/kg)	Brain water content (%) ([4]; 1 mg/kg, 3 h)	Brain water content (%) ([4]; 1 mg/kg, 6 h)	Brain water content (%) ([4]; 5 mg/kg, 3 h)	Brain water content (%) ([4]; 5 mg/kg, 6 h)	Plasma fibrinogen ([5]; 3 mg/kg)	Plasma fibrinogen ([5]; 10 mg/kg)	Plasma fibrinogen ([5]; 30 mg/kg)	effect on neurobehavioral injury, infarct volume and cerebral edema [6, 11]	effect on neurobehavioral injury, infarct volume and cerebral edema [6, 12]	Infarct percentage (%) ([8]; 1 mg/kg, 3 h)	Infarct percentage (%) ([8]; 1 mg/kg, 6 h)	Infarct percentage (%) ([8]; 5 mg/kg, 3 h)	Infarct percentage (%) ([8]; 5 mg/kg, 6 h)	further results
CC(CN1c2ccccc2Sc2cccnc21)N(C)C (racemic) [isothipendyl racemate, isothipendyl]	–	–	–	–	–	–	–	–	–	–	–	–	–	–	–	–	–	–	–	–	efficacy relative to (+)-isomer [1]: 2.5 times; efficacy relative to (−)-isomer [1]: 1.4 times
O=C1C[C@H](c2ccccc2)Oc2cc(O)cc(O)c21 [(R)-pinocembrin]	1.42 ± 0.82	1.86 ± 0.57	1.39 ± 0.72	1.83 ± 0.49	235.4 ± 35.2	228.4 ± 16.9	198.1 ± 35.4	82.18 ± 0.98	83.36 ± 1.12	81.20 ± 1.03	83.77 ± 1.07	2.99 ± 0.13	2.83 ± 0.18	2.74 ± 0.47	significant effects	not effective	15.69 ± 7.82	26.33 ± 12.67	15.66 ± 7.88	25.89 ± 13.57	LD50 [7]: 347.8 (257.4˜466.3) mg/kg
O=C1C[C@@H](c2ccccc2)Oc2cc(O)cc(O)c21 [(S)-pinocembrin, reference compound]	1.29 ± 0.72	1.79 ± 0.63	1.59 ± 0.77	1.77 ± 0.70	243 ± 19.5	240 ± 16.8	240.8 ± 24.3	81.95 ± 1.00	82.96 ± 0.98	81.87 ± 1.12	83.37 ± 1.27	3.00 ± 0.32	2.99 ± 0.61	2.81 ± 0.57	significant effects	not effective	15.32 ± 7.98	28.06 ± 12.98	15.78 ± 7.28	25.97 ± 12.75	LD50 [9]: 375 mg/kg; effect on plasma ET-1 content ([3]; compared with the model group): no activity; effect on content of plasma fibrinogen ([5]; compared with the model group): no activity
pinocembrin racemate	–	–	–	–	–	–	–	–	–	–	–	–	–	–	–	–	–	–	–	–	increase of nerve cells in comparison with the model group ([10]; 3 mg/kg): 11.5±8.9%; increase of nerve cells in comparison with the model group ([10]; 10 mg/kg): 36.8±4.9%; increase of nerve cells in comparison with the model group ([10]; 30 mg/kg): 51.7±6.6%
